# From patent US20120088694A1, “CELL ASSAY METHODS AND ARTICLES” (NanoInk, Inc., priority 2010, published 2012)
# Tested on: NIH 3T3 fibroblasts
# Experiment: Fibroblast spreading and migration on fibronectin patterns with PEG hydrogel delivering compound
# Type: cell-based
# Method: An exemplary method is described here for patterning cells onto surfaces using direct deposition of extracellular matrix (ECM) proteins and for delivering multiple compounds to individual cells. First, actin polymerization and stress fiber formation was followed over a 2 hour time period. Second, multiple ECM proteins were patterned on the same substrate and side-by-side analysis of single cells was done to characterize differential responses. Finally, polyethylene glycol with or without Cytochalasin-D (250 μM or 500 μM) was delivered to individual cells. A method was established for single cell analysis with multiple compounds on the same substrate. The NLP 2000 (NanoInk, Inc., Skokie, Ill.) fabrication system was used for patterning of ECM proteins and hydrogel composites. After approximately 4 hours, substrates were rinsed and non-specific cell binding is blocked with a solution of bovine serum albumin. NIH 3T3 fibroblasts (ATCC) were added at high density for 30 minutes, at which point non-adherent cells are washed and removed. Complete media was then added for between 0.5 and 3.5 hours before paraformaldehyde fixation, staining and analysis. Cells attach to approximately 75% of the patterns deposited onto glass surfaces. Cell morphology was controlled and actin polymerization was more developed with more elongated stress fibers at 2 hours versus earlier time points. […] Combinatorial experimentation is increasingly important with regard to the cellular microenvironment.
# A mixture of PEG-DMA, 4-arm PEG thiol, and Cytochalasin D, a compound of interest, is patterned onto an epoxy-coated glass slide. After curing with UV, fibronectin, an ECM protein, was patterned onto the glass slide around the cured hydrogel. In a control hydrogel pattern, only PEG-DMA and 4-arm PEG thiol, but not any compound of interest, were used for fabricating the hydrogel.
# Subsequently, 3T3 fibroblasts were plated onto the glass slide with PEG and fibronectin as described above. […] FIGS. 11 and 12 show the time course following spreading and migration of fibroblasts over a period of 4 hours.
# [1] = cells cultured for 2 hours, Cytochalasin D in the PEG hydrogel vs control hydrogel, 15 patterns per group
smiles,measurement,setting,value
C=C1[C@@H](C)[C@H]2[C@H](Cc3ccccc3)NC(=O)[C@]23[C@H](OC(C)=O)/C=C/[C@@](C)(O)C(=O)[C@@H](C)C/C=C/[C@H]3[C@@H]1O [Cytochalasin D],migration of fibroblasts from the fibronectin patterned area,"250 and 500 μM in PEG hydrogel, time course over 4 hours, vs PEG without CytoD",prevented migration of fibroblasts from the fibronectin patterned area
same,cell spreading and migration,Cytochalasin-D (250 μM or 500 μM) delivered in PEG hydrogel to individual cells,decline in cell spreading and migration
same,"number of cells on patterns (images, average fluorescence intensity)",[1],significantly fewer cells
same,spreading and/or migration away from the patterns,[1],less spreading and/or migration away from the patterns
